Reference: US8378112B2, “Glycyrrhetinic acid derivative and use thereof” (INI Corporation, priority 2008, dated 2013)

Experiments:
mice = format: in vivo; details: intraperitoneal injection of 200 and 1000 mg/kg body weight
C57BL/6J mice = test: Hippocampal glutamate concentration determination (microdialysis, LPS stimulus); format: in vivo, mouse; details: 20 mg/kg intraperitoneal simultaneously with 10 μg/2 μl LPS stimulus; FIG. 13
Method: A microdialysis catheter was indwelled stereotaxically (in place) into the hippocampus of C57BL/6J mice (8 weeks of age, female, n=5 to 7). After settlement for 48 hours, the determination of the hippocampal glutamate with time was started using high-speed liquid chromatography (HPLC, HITEC-500 GAD, made by Eicom Corp. A stimulus was given by administering 10 μg/2 μl of lipopolysaccharide (LPS) through said catheter, along with an intraperitoneal injection of 20 mg/kg body weight CBX or Compound B simultaneously with the LPS stimulus administration, for a pharmacological efficacy assessment. The hippocampal glutamate concentration was quantified as a % value relative to the average value thereof from 120 minutes to 60 minutes before the stimulus was given to each individual.

[1] = system: Mouse cerebral cortex primary neuronal cells; test: Cell death of neuronal cells cultured with microglia-conditioned medium (propidium iodide, TUNEL); format: cell-based; details: microglia conditioned medium with LPS and compound at 1, 10, 100 μM; FIG. 6
Method: (§1) Next, Compound A and Compound B were checked as to their inhibitory effect on glutamate production in activated microglia. That is, mouse primary microglia were isolated from primary mixed glial cell cultures, prepared from neonatal C57BL/6 mice brains by the “shaking off” method on the 14th culture day or later (Suzumura, A. et al J. Neuroimmunol. 15, 263-278 1987). Mouse cerebral cortex primary neuronal cells were prepared from the cerebral cortices of C57BL/6J mice at embryonic day 17, and were plated on polyethyleneimine-coated cover glasses, and were used at culture day 10-13 (Takeuchi, H. et al. J. Biol. Chem. 280, 10444-10454, 2005.)
Using the culture system of neuronal cells utilizing a microglia conditioned medium, the neuronal cell damage by activated microglia was analyzed with time by the following methods (Takeuchi, H. et al. J. Biol. Chem. 280, 10444-10454, 2005.) Namely, 1 μg/ml lipopolysaccharide (LPS) and Compound A, Compound B, and carbenoxolone (CBX) at each concentration thereof (1 μM, 10 μM and 100 μM as the final concentrations) were added to a microglia culture (about 5×10^4 cells/well, a neuronal culture medium, (made by Sumitomo Bakelite Co., Ltd)) followed by incubating under 100% humidity and 5% CO2 for 24 hours. For a control, except for not adding Compound A or Compound B, microglia were incubated in a similar manner (LPS). […]

LPS-activated microglia = test: Inhibitory effect on glutamate production by activated microglia (glutamate in neuronal medium cultured with microglia conditioned medium); format: cell-based, mouse; details: for glutamate concentration in the neuron culture media: microglia cultured with 1 μg/ml LPS and compound at 1, 10, 100 μM for 24 hours
Method: as §1
Using the culture system of neuronal cells utilizing a microglia conditioned medium, the neuronal cell damage by activated microglia was analyzed with time by the following methods (Takeuchi, H. et al. J. Biol. Chem. 280, 10444-10454, 2005.) Namely, 1 μg/ml lipopolysaccharide (LPS) and Compound A, Compound B, and carbenoxolone (CBX) at each concentration thereof (1 μM, 10 μM and 100 μM as the final concentrations) were added to a microglia culture (about 5×10^4 cells/well, a neuronal culture medium, (made by Sumitomo Bakelite Co., Ltd)) followed by incubating under 100% humidity and 5% CO2 for 24 hours. For a control, except for not adding Compound A or Compound B, microglia were incubated in a similar manner (LPS).
Each of the activated microglia conditioned media, 500 μl, 24 hrs after the administration, was added to neuronal cells (5×10^4 cells/well) in a 24-well plate, and the neuronal cells were cultured at 37° C. under 100% humidity and 5% CO2. The non-activated microglia conditioned medium was also added to neuronal cells to serve as a control (NT). 24 hours after the start of culturing, the amounts of glutamate and neuronal cell death in the conditioned medium were analyzed.
Determination of glutamate was performed by colorimetry; and neuronal cell death was assessed by the dye-exclusion method with propidium iodide under a fluorescence microscope and the terminal deoxynucleotidyl transferase-mediated […] (TUNEL) staining.

[2] = system: APP/PS1 mutant double transgenic mouse; test: Morris water maze test in Alzheimer's disease model mouse; format: in vivo; details: FIG. 12
Method: (§2) The assessment of drug efficacy of Compound B was conducted using, as an animal model of neurodegenerative diseases, the human amyloid precursor protein/human presenilin-1 (APP/PS1) mutant double transgenic mouse, which is widely used as an Alzheimer's disease model mouse.
(§3) Starting at 9 months of age, which is considered to be an intermediate onset period, they were intraperitoneally administered with 10 and 20 mg/kg body weight of Compound B or the same volume of physiological saline (PBS group) 3 times a week. The control group was a wild type mouse (G57BL/6J) of the same age. Behavioral analysis was performed using the following three types of behavior experiments.
(3) Morris water maze test: Spatial recognition memory was evaluated using the Morris water maze test (Mouri et al. and FASEB J. 21 2135-2148 2007; Miyamoto et al; J. Neurosci. 25, 1826-1835 2005). A 60 second trial was conducted 3 times a day to determine the swimming time (escape latency) and swimming distance (distance moved) from a different start position to a fixed platform. This was performed for seven days in row; on the eighth day, a probe test was performed with the platform removed. The Probe test involved dividing the water maze into 4 regions consisting of Target (Platform), Right, Opposite, and Left and determining the ratios of the regions in which they swam over 60 seconds. The items to be determined were determined using the SMART system (Panlab, Barcelona, Spain).

[3] = system: APP/PS1 mutant double transgenic mouse; test: Fear conditioned learning test in Alzheimer's disease model mouse; format: in vivo; details: FIG. 11
Method: as §2, §3
(2) Fear conditioned learning test: Associative learning was assessed using a fear conditioned learning test (Mouri et al., FASEB J. 21, 2135-2148, 2007; Nagai et al., FASEB J. 17, 50-52, and 2003). The mice were placed in a transparent acrylic cage with a stainless steel grid installed therein and were subjected to a 20 second tone stimulus (80 dB), and then further to an electric stimulus (0.6 mA). A set of this combination stimulus was repeated 4 times with 15 second intervals, thereby causing fear conditioning. A contextual dependency test and a tone stimulus dependency test were carried out 24 hours after the fear conditioning. For the former, mice were placed in the […] acrylic cage with a grid where the fear conditioning took place to determine their freezing behavior for two minutes under a context of giving no tone and no electric stimuli. For the latter, mice were placed in a black acrylic cage having wood chips on the floor thereof, to determine their freezing behavior for 1 minute when given a continuous tone stimulus. The results were expressed respectively in terms of a percentage (%) of the freezing behavior time relative to the total time for determination.

[4] = system: human superoxide dismutase 1 (SOD1) (G93A) mutant transgenic mouse; test: Survival extension effect in an acute-onset ALS model mouse; format: in vivo; details: 20 mg/kg intraperitoneal 3 times a week from 7-8 weeks of age; vs PBS, p<0.0001; FIG. 8
Method: The assessment of drug efficacy at different Compound B concentrations was conducted using, as an animal model of neurodegenerative diseases, a human superoxide dismutase 1 (SOD1) (G93A) mutant transgenic mouse, which is widely used as an acute-onset model of amyotrophic lateral sclerosis (ALS).
(§4) Starting at 7-8-weeks of age, which is considered to be an early ALS onset period, they were intraperitoneally administered with 5, 10, and 20 mg/kg body weight of the novel gap junction inhibitor (Compound B) or the same volume of physiological saline (PBS group) 3 times a week. The survival analysis was performed using the Kaplan-Meier method.

[5] = system: human superoxide dismutase 1 (SOD1) G93A mutant transgenic mouse; test: Survival extension effect in an ALS model mouse; format: in vivo; details: 20 mg/kg intraperitoneal 3 times a week from 6-7 weeks of age; vs PBS, p<0.0002; FIG. 7
Method: The assessment of drug efficacy was conducted using, as an animal model of neurodegenerative diseases, the human superoxide dismutase 1 (SOD1) G93A mutant transgenic mouse, which is widely used as a model of amyotrophic lateral sclerosis (ALS). Said transgenic mice were procured from Jackson Laboratory, USA.
as §4, with “at 6-7-weeks” for “at 7-8-weeks”, “with” for “with 5, 10, and”, “of Compound B, which is a” for “of the”, “junction inhibitor, CBX,” for “junction inhibitor (Compound B)”

[6] = system: APP/PS1 mutant double transgenic mouse; test: Novel object exploration test in Alzheimer's disease model mouse; format: in vivo; details: 10 and 20 mg/kg intraperitoneal 3 times a week; FIG. 10
Method: as §2, §3
(1) Novel object exploration test: After the mice were habituated for 3 days (10 minutes/day) in an acrylic experiment apparatus, they were subjected to training. The raining consisted of placing two different objects in the apparatus and they were allowed to freely explore for 10 minutes. 24 hours after the training, Retention was carried out. The Retention consisted of replacing one of the two objects which had been placed in the apparatus during the training with a novel object and allowing the mice to freely explore for 5 minutes. The times spent exploring (touching, sniffing behavior and the like) the two objects were determined respectively. […]

[7] = 10 and 20 mg/kg intraperitoneal 3 times a week

SMILES | deaths after acute dosing (mice) | inhibitory effect on the rise in hippocampal glutamate (C57BL/6J mice) | neuronal cell death (%) [1] | glutamate concentration in the neuron culture media (LPS-activated microglia; FIG. 5) | distance swum ([2]; 10 mg/kg, training day 1) | distance swum ([2]; 10 mg/kg, training day 5-7) | distance swum ([2]; 20 mg/kg, training day 4-7) | swimming time ([2]; 20 mg/kg, training day 4-7) | swimming time in the target region (Probe test) ([2]; Compound B administered groups, day 8 probe test) | glutamate release inhibition (LPS-activated microglia; 100 μM, LPS-activated microglia, FIG. 5) | inhibition of glutamate release in LPS-activated microglia, comparison of compounds (LPS-activated microglia; LPS-activated microglia) | freezing behavior time, tone stimulus dependency test ([3]; 20 mg/kg administered group) | freezing behavior time, contextual dependency test [3, 7] | freezing behavior time, tone stimulus dependency test [3, 7] | extending survival, on average [4] | extending survival, on average [5] | novel object exploratory preference [6]
CC1(C)[C@@H](OC(=O)CCC(=O)O)CC[C@]2(C)[C@H]3C(=O)C=C4[C@@H]5C[C@@](C)(C(=O)O)CC[C@]5(C)CC[C@@]4(C)[C@]3(C)CC[C@@H]12 [CBX, carbenoxolone, reference compound] | all mice among the CBX administered group died within 24 hours | no inhibitory effect | – | – | – | – | – | – | – | – | – | – | – | – | – | – | –
CC1(C)[C@@H](OC(=O)c2cccnc2)CC[C@]2(C)[C@H]3C(=O)C=C4[C@@H]5C[C@@](C)(C(=O)O)CC[C@]5(C)CC[C@@]4(C)[C@]3(C)CC[C@@H]12 [Compound A] | – | – | inhibited in a concentration-dependent manner | fell in accordance with the concentration of these compounds | – | – | – | – | – | – | – | – | – | – | – | – | –
C[n+]1cccc(C(=O)O[C@H]2CC[C@]3(C)[C@H]4C(=O)C=C5[C@@H]6C[C@@](C)(C(=O)O)CC[C@]6(C)CC[C@@]5(C)[C@]4(C)CC[C@H]3C2(C)C)c1 [Compound B] | – | significant inhibitory effect | inhibited in a concentration-dependent manner | fell in accordance with the concentration of these compounds | about the same as that of the PBS administered group | fell significantly | significant reduction | significant reduction | significantly increased | comparable to that of the non-stimulated microglia | notably more effective than Compound A | significant moderation effect | significantly moderated the observed reduction in freezing behavior time | dose-dependent increase in the freezing behavior time | about 2 weeks | about 14 days | significantly greater than the PBS administered group
